Entries after “also recorded” stand apart in the source; their conditions may differ.

Data on 3 compounds can be found in US10562857B2 (AFASCI, Inc., priority 2015, dated 2020).

Data set [1] relates to incision-induced pain in mice. As to the kind of experiment: Incision-induced acute pain in mice, von Frey test. Particulars: 30 mg/kg I.P. The format is in vivo, mouse. How it is done:
FIG. 9. Effects of EXAMPLE-116, -118 or ML218 (a reference compound) on incision-induced acute pain in mice (C57BL/6, male, ˜2 months old; n=8 mice per treatment group). Mechanical pain threshold assessment (von Frey monofilament test) of the mice's incision left hindpaws. Each mouse received either EXAMPLE-116, -118, or ML218 (as a reference compound, each 30 mg/kg, I.P.) or vehicle (2% DMSO in 0.5% HPC, I.P.). Mechanical pain responses were measured at 0.5, 1, 2, 4, and 5 hours after treatment.
To further confirm the Cav3 modulator effects on acute pain and neurogenic inflammatory pain, an incision-pain mode in mice was used. Postoperative pain model induced by a deep incision in the hindpaw produces robust mechanical allodynia (Pogatzki et al., 2003). Mechanical pain thresholds were assessed using von Frey monofilament test of the incised left hindpaws. Each mouse received either EXAMPLE-116, -118, ML218 (as a reference compound, each 30 mg/kg, I.P.) or vehicle (2% DMSO in 0.5% HPC, I.P., n=8 mice per treatment group). Mechanical pain responses were measured at 0.5, 1, 2, 4, and 5 hours after treatment.

Data set [2] concerns SNI rats. As to the kind of experiment: Spared nerve injury (SNI) rats, Hargreaves thermal test. It is filed as in vivo, rat. Particulars: 30 mg/kg, 1 mL I.P. How it is done: FIG. 3A. Spared Nerve Injury (SNI) rats' left hindpaw withdrawal latencies in response to thermal stimulation (Hargreaves test). Each SNI rat received either EXAMPLE-106, 107, or 115, (each 30 mg/kg, 1 mL I.P.), or vehicle (2% DMSO in 0.5% HPC). Sham rats also received vehicle I.P. injections. […] 40 seconds were cutoff in order to prevent tissue damage. The sham-vehicle serves as a positive control (n=8 per treatment group).
In additional examples shown here, the analgesic effects were further evaluated in another rat species. Baseline thermal and mechanical thresholds of male rats (Sprague-Dawley rats, 275 g-325 g, Harlan) were taken prior to surgery; baseline thresholds were measured on the rats' left hindpaws. Thirty-two rats underwent the SNI surgery on their left hind leg; 8 rats underwent surgery without injury of the nerves as a sham group. Two weeks post-surgery, the thermal thresholds of each rat were reassessed. […] Each rat received either EXAMPLE-106, -107, -115 (each 30 mg/kg, 1 mL I.P.), or vehicle (2% DMSO in 0.5% HPC). Thermal and mechanical thresholds were measured at 1, 2, 3, 4, 5, 6, 7, and 8 hours post-treatment/dosing. […] The drug actions started around 1 hour post-injection and peaked between 2 and 3 hours, and the drug effects gradually declined to pre-treatment levels over 6-7 hours (FIGS. 3A and B).

For data set [3], the system named is CFA mice. The data set can be described thus: Complete Freund's Adjuvant (CFA)-induced inflammatory pain in mice, von Frey test. It is filed as in vivo, mouse. Particulars: 30 mg/kg I.P. The protocol: FIG. 7. Effects of EXAMPLE-96, 107 or 115 (each 30 mg/kg, I.P.) or gabapentin (as a benchmark, 100 mg/kg, I.P) on Complete Freund's Adjuvant (CFA)-induced inflammation in male, mice (C57BL/6, ˜2 months old; n=8 mice per group). Mechanical pain threshold assessment of CFA mice's left hindpaws were measured using von Frey monofilament test at 0.5, 1, 2, 4, and 6 hours after treatment.
Because knockout or antisense knockdown of the Cav3.2 isoform produces analgesic effects in neuropathic pain as well as in inflammatory pain in mice (Choi et al., 2007), we used the Complete Freund adjuvant (CFA)-inflammatory pain in mice to investigate the drug effects. EXAMPLE-96, -115, and -107 (each at 30 mg/kg, I.P.) and a reference gabapentin (100 mg/kg, I.P.) was individually administered to mice that had CFA-induced inflammation on their left hindpaws.

Data set [4] has as its system Ames microsomemutagenicity assay. The data set can be described thus: Ames microsome mutagenicity assay. It is filed as cell-based. An excerpt: Moreover, compounds useful in therapeutic formulations may be further screened for undesired side effect activities by utilizing large ancillary pharmacology panel screens, for example, SafetyScreen 44 and the Ames microsomemutagenicity assay (Eurofins-Cerep, US and France).

Data set [5] relates to baclofen-induced absence seizures in mice. The data set can be described thus: Baclofen-induced absence seizures in mice (EEG spike wave discharges). The format is in vivo, mouse. Conditions: 30 mg/kg I.P. 30 min before baclofen. The source says:
FIG. 11. Effects of EXAMPLE-128 on baclofen-induced absence seizures in mice.
Absence seizures, especially childhood absence epilepsy, is characterized by a brief loss of consciousness and muscle tone as the primary manifestations. Ethosuximide, a weak and non-selective T-type calcium channel inhibitor, is effective in treating only absence seizures (Huguenard J R, 2002); while the GABAB baclofen exacerbates transgenic absence seizure models and alone induces absence seizures in wild-type animals (Han et al., 2012). […] The baclofen-induced brain seizure activity mimics absence seizures.

Data set [6] has as its system harmaline-induced tremor in mice. The data set can be described thus: Harmaline-induced essential tremor model in mice. The format is in vivo, mouse. How it is done:
FIG. 12. Effects of EXAMPLE-128 on harmaline-induced essential tremor model in mice. Harmaline was dissolved in saline and administrated at 10 mg/kg (S.C.) mice (C57BL/6, male, 3-5 months). Ten minutes after tremors occurred, mice were treated with either EXAMPLE-128 (30 mg/kg, I.P.) or vehicle (2% DMSO in 0.5% HPC).
Harmaline can induce tremors modeling human essential tremor manifested as postural and kinetic tremors (Nahab et al., 2012). Harmaline was dissolved in saline and administrated at 10 mg/kg (s.c.) to mice (C57BL/6, male, 3 months) and the mice were immediately returned to homecage monitor with an piezoelectric sensor operated by the SmartCage™ for continual recordings for 60 min. […] Mice were randomly assigned to be treated with EXAMPLE-128 (3, 10 or 30 mg/kg, I.P.) or vehicle (2% DMSO in 0.5% HPC), starting ten min after tremors began, Tremor episode numbers and each episode's duration were offline human scored.

The test system of data set [7] is formalin-induced inflammation in mice. As to the kind of experiment: Formalin-induced pain in mice. It is filed as in vivo, mouse. Conditions: 30 mg/kg I.P. 30 min before 10% formalin. How it is done: FIG. 8. Effects of EXAMPLE-128 (30 mg/kg, I.P.) or vehicle on formalin-induced inflammation in male mice (C57BL/6, ˜3 months old; n=8 mice per group). The test compound was I.P. administered 30 min prior to local injection of 10% formalin into the left hindpaw (10 μl). Time spent in grooming, licking or biting the injury paw was manually scored immediately following formalin injection in 5-min time bin for 45 min.
Formalin-induced biphasic response, nociception followed by inflammatory pain in a mouse hindpaw, is an acute pain and chemical-induced inflammatory pain model. The EXAMPLE-128 was tested in this model. Mice (C57BL/6, male, ˜2 months old; n=8 mice per treatment group) received a 10 μl intraplantar injection of 10% formalin in saline into the left hindpaw. Pain response scoring includes counts per episode of time of reactions to the pain stimulus as indicated by licks, twitches, raising or shaking of the injected paw.

Consider `CC(C)(C)CCN1C[C@@H]2[C@@H](CNC(=O)c3cc(Cl)cc(Cl)c3)[C@@H]2C1` [ML218, 3,5-Dichloro-N-[[(1α,5α,6-exo,6α)-3-(3,3-dimethylbutyl)-3-azabicyclo[3.1.0]hex-6-yl]methyl]benzamide, reference compound], for which the “mechanical pain threshold, incision-induced pain” value in data set [1] is on record as “inhibited incision-induced inflammatory pain”.
`O=C(Nc1nnc(-c2ccccc2)o1)c1ccc(Cl)s1` [Example 115, 5-Chloro-N-(5-phenyl-1,3,4-oxadiazol-2-yl)thiophene-2-carboxamide]: the “left hindpaw withdrawal latency to thermal stimulation (hyperalgesia)” value in data set [2] was “elevated both thermal and mechanical thresholds; also recorded: reduced hyperalgesia”. For the same compound, the “mechanical pain threshold, CFA-induced inflammation” value in data set [3] is on record as “showed an analgesic effect in mechanical pain”.
With `CC(C)(C)NC(=O)CN1CCC2(CC1)CC2NC(=O)c1cc(F)cc(Cl)c1` (single isomer, unassigned) [Example 128, (S)—N-(6-(2-(tert-Butylamino)-2-oxoethyl)-6-azaspiro[2.5]octan-1-yl)-3-chloro-5-fluorobenzamide or (R)—N-(6-(2-(tert-Butylamino)-2-oxoethyl)-6-azaspiro[2.5]octan-1-yl)-3-chloro-5-fluorobenzamide], in data set [4], the mutagenicity result was “lack of mutagenicity”. The “spike wave discharges (SWD) occurring frequency” value in data set [5] was “significantly reduced the SWD occurring frequence; also recorded: significantly reduced the SWD occurring frequency”. Besides, in data set [6] (harmaline 10 mg/kg S.C., 30 mg/kg I.P.), the “total tremor occurring time in 60 minutes” value is listed as “significantly reduced the total tremor occurring time”. Moreover, the “total time spent in tremors” value in data set [6] (harmaline 10 mg/kg s.c., 3, 10 or 30 mg/kg I.P.) was “significantly reduced the total time spent in tremors in a dose-dependent manner”. The “formalin-induced biphasic pain response” value in data set [7] is given as “produced inhibition of both phases”.
